In patent US20080009418A1, “Selective Inhibitors” (Alchemia LTD., priority 2004, published 2008):

Legend:
Human μ-opioid (MOP) = target: T1, Human μ-opioid (MOP) (Homo sapiens, UniProt P35372); assay: Radioligand binding, human μ-opioid (MOP) membranes, FlashPlate, [3H]-Naloxone; conditions: compound at 10 μM, [3H]-Naloxone
T1 construct: purchased Perkin Elmer Biosignal
How it was run: (§1)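 Cloned human receptor membranes were coated onto FlashPlate wells and incubated with radioligand and compound (added from a 0.5 mM DMSO daughter plate) for 1 hour at room temperature in the dark. Scintillation counting gave percent inhibition, with DMSO defining total and reference ligand defining non-specific binding.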

Human melanocortin (MC5) = target: T2, Human melanocortin (MC5) (Homo sapiens, UniProt P33032); assay: Radioligand binding, human melanocortin MC5 membranes, FlashPlate, [125I]-NDP-αMSH; conditions: compound at 10 μM, [125I]-NDP-αMSH
T2 construct: purchased Perkin Elmer Biosignal
T2 sequence (P33032 whole entry): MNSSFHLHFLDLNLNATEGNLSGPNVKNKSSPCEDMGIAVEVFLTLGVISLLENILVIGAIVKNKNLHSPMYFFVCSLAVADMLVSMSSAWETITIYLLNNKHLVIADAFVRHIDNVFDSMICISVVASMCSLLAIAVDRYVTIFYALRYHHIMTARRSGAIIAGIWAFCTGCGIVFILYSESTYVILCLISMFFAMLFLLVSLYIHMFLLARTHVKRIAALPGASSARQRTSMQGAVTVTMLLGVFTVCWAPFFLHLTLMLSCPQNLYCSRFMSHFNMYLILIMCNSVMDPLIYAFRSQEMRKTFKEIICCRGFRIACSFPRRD
How it was run: as §1

Human Melanocortin (MC4) = target: T3, Human Melanocortin (MC4) (Homo sapiens, UniProt P32245); assay: Radioligand binding, human melanocortin MC4 membranes, FlashPlate, [125I]-NDP-αMSH; conditions: compound at 10 μM, [125I]-NDP-αMSH
T3 construct: purchased Perkin Elmer Biosignal
T3 sequence (P32245 whole entry): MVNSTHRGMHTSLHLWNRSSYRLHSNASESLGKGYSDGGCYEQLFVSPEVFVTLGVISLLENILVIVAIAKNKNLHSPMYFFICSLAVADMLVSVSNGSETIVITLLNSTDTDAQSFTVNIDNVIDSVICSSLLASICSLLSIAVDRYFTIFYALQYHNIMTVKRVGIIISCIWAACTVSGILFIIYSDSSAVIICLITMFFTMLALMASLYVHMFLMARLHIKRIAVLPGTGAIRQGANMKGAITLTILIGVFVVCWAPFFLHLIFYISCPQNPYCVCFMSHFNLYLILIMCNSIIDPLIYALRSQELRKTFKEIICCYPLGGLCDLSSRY
How it was run: as §1

Human Melanocortin (MC3) = target: T4, Human Melanocortin (MC3) (Homo sapiens, UniProt P41968); assay: Radioligand binding, human melanocortin MC3 membranes, FlashPlate, [125I]-NDP-αMSH; conditions: compound at 10 μM, [125I]-NDP-αMSH
T4 construct: purchased Perkin Elmer Biosignal
T4 sequence (P41968 whole entry): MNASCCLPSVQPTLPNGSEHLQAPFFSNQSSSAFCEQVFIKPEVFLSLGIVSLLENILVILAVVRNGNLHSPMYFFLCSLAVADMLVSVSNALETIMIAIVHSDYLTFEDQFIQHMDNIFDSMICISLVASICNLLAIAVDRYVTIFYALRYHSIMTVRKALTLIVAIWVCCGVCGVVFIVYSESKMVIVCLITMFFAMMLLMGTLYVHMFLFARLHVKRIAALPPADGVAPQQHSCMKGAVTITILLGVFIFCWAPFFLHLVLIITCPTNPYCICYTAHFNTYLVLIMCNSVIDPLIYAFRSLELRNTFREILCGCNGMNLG
How it was run: as §1

[1] = target: T5, Human melanin-concentrating hormone (MCH1) (Homo sapiens, UniProt Q99705); assay: Radioligand binding, human melanin-concentrating hormone MCH1 membranes, FlashPlate, [125I]-S36057; conditions: compound at 10 μM; for A6: inhibition of radioligand binding, human melanin-concentrating hormone (MCH1): [125I]-S36057
T5 construct: purchased Perkin Elmer Biosignal
T5 sequence (Q99705 whole entry): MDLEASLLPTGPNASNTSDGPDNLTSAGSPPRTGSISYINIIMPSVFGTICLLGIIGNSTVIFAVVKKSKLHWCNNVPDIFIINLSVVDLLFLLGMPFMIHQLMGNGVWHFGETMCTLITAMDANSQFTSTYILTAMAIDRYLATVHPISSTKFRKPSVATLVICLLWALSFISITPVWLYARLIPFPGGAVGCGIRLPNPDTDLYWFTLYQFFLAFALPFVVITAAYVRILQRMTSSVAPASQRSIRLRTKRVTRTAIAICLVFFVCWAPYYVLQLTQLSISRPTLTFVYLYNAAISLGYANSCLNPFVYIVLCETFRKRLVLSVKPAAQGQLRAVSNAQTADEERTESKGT
How it was run: as §1

Human δ-opioid (DOP) = target: T6, Human δ-opioid (DOP) (Homo sapiens, UniProt P41143); assay: Radioligand binding, human δ-opioid (DOP) membranes, FlashPlate, [3H]-Bremazocine; conditions: compound at 10 μM, [3H]-Bremazocine
T6 construct: purchased Perkin Elmer Biosignal
T6 sequence (P41143 whole entry): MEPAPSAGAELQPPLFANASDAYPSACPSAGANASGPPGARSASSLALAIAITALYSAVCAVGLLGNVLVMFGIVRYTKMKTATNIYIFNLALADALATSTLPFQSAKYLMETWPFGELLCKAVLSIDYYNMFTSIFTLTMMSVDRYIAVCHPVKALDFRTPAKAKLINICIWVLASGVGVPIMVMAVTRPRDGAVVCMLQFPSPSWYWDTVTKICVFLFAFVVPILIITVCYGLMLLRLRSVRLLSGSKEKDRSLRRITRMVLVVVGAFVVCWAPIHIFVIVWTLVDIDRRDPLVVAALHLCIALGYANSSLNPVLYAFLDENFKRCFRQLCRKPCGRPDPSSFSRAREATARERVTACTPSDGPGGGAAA
How it was run: as §1

[2] = target: T7, Human neuropeptide Y (NPY-Y1) (Homo sapiens, UniProt P25929); assay: Radioligand binding, human neuropeptide Y NPY-Y1 membranes, FlashPlate, [125I]-PYY; conditions: compound at 10 μM, [125I]-PYY
T7 construct: purchased Perkin Elmer Biosignal
T7 sequence (P25929 1-384): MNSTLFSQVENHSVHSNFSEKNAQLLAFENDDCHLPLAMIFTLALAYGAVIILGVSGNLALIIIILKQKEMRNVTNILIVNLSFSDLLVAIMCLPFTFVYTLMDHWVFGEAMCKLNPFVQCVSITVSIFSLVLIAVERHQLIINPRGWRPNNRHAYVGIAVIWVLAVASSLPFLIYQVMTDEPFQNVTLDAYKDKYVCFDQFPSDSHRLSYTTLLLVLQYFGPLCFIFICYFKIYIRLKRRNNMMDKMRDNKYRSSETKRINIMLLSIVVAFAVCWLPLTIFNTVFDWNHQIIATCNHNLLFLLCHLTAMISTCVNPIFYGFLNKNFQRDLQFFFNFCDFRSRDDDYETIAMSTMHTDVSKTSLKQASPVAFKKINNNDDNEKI
How it was run: as §1

Human opioid (ORL1) = target: T8, Human opioid (ORL1) (Homo sapiens, UniProt P41146); assay: Radioligand binding, human opioid ORL1 membranes, FlashPlate, [125I]-Nociceptin; conditions: compound at 10 μM, [125I]-Nociceptin
T8 construct: purchased Perkin Elmer Biosignal
T8 sequence (P41146 whole entry): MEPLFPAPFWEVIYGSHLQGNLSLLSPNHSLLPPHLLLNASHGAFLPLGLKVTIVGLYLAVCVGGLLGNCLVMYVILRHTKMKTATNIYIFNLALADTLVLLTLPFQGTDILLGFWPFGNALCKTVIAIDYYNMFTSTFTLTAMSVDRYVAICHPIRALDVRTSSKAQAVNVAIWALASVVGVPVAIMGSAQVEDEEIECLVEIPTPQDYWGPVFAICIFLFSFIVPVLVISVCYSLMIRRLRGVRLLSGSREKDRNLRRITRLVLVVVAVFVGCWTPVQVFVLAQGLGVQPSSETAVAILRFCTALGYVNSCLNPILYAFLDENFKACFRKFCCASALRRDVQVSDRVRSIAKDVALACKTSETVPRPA
How it was run: as §1

Mouse urotensin (mUR2) = target: T9, Mouse urotensin (mUR2) (Mus musculus, UniProt Q8VIH9); assay: Radioligand binding, mouse urotensin mUR2 membranes, FlashPlate, [125I]-Urotensin II; conditions: compound at 10 μM, [125I]-Urotensin II
T9 construct: purchased Perkin Elmer Biosignal
T9 sequence (Q8VIH9 1-385): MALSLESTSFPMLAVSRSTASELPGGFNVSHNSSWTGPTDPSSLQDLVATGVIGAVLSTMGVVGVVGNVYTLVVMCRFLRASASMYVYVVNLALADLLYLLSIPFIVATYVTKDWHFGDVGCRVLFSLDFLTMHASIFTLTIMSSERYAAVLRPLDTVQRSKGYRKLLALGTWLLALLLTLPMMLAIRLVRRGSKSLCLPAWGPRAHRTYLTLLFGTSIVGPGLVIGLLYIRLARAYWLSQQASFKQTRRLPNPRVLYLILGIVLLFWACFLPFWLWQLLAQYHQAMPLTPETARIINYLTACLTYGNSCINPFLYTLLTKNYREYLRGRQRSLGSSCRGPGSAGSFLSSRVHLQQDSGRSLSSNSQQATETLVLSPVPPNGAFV
How it was run: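 Cloned mouse urotensin (mUR2) receptor membranes from Perkin Elmer Biosignal were immobilized in FlashPlate microplates using a proprietary coating. Each well got 19.5 μl buffer, then 0.5 μl of DMSO, reference ligand, or compound. Adding 5 μl of [125I]-Urotensin II, diluted to 5× final concentration in binding buffer, started binding. Plates were sealed with TopSeal-A and incubated 1 hour at room temperature in the dark. Wells were counted for 30 seconds each on a TopCount after a 60-second delay, and percentage inhibition was calculated.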

Human neurokinin (NK1) = target: T10, Human neurokinin (NK1) (Homo sapiens, UniProt P25103); assay: Radioligand binding, human neurokinin NK1 membranes, filtration, [125I]-Substance P; conditions: compound at 10 μM, [125I]-Substance P
T10 construct: purchased Perkin Elmer Biosignal
T10 sequence (P25103 whole entry): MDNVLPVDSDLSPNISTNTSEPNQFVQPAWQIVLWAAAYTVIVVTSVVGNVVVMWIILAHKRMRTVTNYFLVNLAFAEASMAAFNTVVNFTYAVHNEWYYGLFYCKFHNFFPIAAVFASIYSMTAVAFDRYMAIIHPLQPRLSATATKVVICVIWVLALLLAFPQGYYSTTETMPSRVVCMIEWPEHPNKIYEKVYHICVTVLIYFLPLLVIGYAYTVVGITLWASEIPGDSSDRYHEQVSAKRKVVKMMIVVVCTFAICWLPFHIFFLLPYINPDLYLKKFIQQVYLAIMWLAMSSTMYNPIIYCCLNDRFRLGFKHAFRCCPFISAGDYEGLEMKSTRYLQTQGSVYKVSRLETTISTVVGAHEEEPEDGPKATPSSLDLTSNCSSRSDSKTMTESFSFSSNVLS
How it was run: (§2)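 Filtration binding on cloned human receptor membranes (1 Unit/well), [125I]-Substance P for NK1 and [3H]-Diprenorphine for KOP, 1 h at room temperature. Filters PEI-presoaked, washed with cold 50 mM Tris-HCl pH 7.4, counted by scintillation; percent inhibition calculated, reference ligand defining non-specific binding.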

Human κ-Opioid (KOP) = target: T11, Human κ-Opioid (KOP) (Homo sapiens, UniProt P41145); assay: Radioligand binding, human κ-opioid (KOP) membranes, filtration, [3H]-Diprenorphine; conditions: compound at 10 μM, [3H]-Diprenorphine
T11 construct: purchased Perkin Elmer Biosignal
T11 sequence (P41145 whole entry): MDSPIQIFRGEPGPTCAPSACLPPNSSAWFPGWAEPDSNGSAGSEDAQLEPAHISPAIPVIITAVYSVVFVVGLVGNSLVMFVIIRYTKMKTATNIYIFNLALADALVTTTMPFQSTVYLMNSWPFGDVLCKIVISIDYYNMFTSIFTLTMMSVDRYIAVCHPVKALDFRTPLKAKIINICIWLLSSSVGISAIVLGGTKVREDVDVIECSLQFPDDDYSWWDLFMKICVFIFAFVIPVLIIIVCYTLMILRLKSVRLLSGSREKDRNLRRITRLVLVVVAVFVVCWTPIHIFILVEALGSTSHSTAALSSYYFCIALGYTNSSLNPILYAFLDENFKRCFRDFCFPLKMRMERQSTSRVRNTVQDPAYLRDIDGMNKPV
How it was run: as §2

T1 sequence (P35372 whole entry): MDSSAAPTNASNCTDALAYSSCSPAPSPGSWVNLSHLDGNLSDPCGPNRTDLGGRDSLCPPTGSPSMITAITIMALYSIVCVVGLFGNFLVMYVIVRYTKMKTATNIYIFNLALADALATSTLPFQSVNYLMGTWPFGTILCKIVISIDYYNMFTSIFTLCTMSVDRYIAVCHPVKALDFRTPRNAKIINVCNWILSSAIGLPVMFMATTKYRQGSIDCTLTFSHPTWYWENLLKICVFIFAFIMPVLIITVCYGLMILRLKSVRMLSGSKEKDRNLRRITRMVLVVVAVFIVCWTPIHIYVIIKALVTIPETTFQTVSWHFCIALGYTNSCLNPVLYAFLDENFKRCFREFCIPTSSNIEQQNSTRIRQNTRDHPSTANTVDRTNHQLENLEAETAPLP

| SMILES | A7: inhibition of radioligand binding, human μ-opioid (MOP) (Human μ-opioid (MOP)) | A5: inhibition of radioligand binding, human melanocortin (MC5) (Human melanocortin (MC5)) | A4: inhibition of radioligand binding, human melanocortin (MC4) (Human Melanocortin (MC4)) | A3: inhibition of radioligand binding, human melanocortin (MC3) (Human Melanocortin (MC3)) | A6: inhibition of radioligand binding, human melanin-concentrating hormone (MCH1) [1] | A1: inhibition of radioligand binding, human δ-opioid (DOP) (Human δ-opioid (DOP)) | A9: inhibition of radioligand binding, human neuropeptide Y (NPY-Y1) [2] | A10: inhibition of radioligand binding, human opioid (ORL1) (Human opioid (ORL1)) | A11: inhibition of radioligand binding, mouse urotensin (mUR2) (Mouse urotensin (mUR2)) | A8: inhibition of radioligand binding, human neurokinin (NK1) (Human neurokinin (NK1)) | A2: inhibition of radioligand binding, human κ-opioid (KOP) (Human κ-Opioid (KOP)) | other results |
| --- | --- | --- | --- | --- | --- | --- | --- | --- | --- | --- | --- | --- |
| CSC1O[C@H](COCc2ccccc2)[C@@H](O)[C@@H](OCc2ccc(-c3ccccc3)cc2)[C@H]1NC(=O)CCCNC(=N)N (stereo partly shown) [compound 287] | − (“−” indicates less than 50% inhibition at 10 μM) | − (“−” indicates less than 50% inhibition at 10 μM) | − (“−” indicates less than 50% inhibition at 10 μM) | − (“−” indicates less than 50% inhibition at 10 μM) | − (“−” indicates less than 50% inhibition at 10 μM) | − (“−” indicates less than 50% inhibition at 10 μM) | − (“−” indicates less than 50% inhibition at 10 μM) | − (“−” indicates less than 50% inhibition at 10 μM) | − (“−” indicates less than 50% inhibition at 10 μM) | + (“+” indicates greater than 50% inhibition at 10 μM) | − (“−” indicates less than 50% inhibition at 10 μM) | – |
| CSC1OC(COCc2cccc(N)c2)C(O)C(OCc2ccccc2)C1NC(=O)c1c[nH]c2ccccc12 (stereo not shown) [compound 331] | − (“−” indicates less than 50% inhibition at 10 μM) | − (“−” indicates less than 50% inhibition at 10 μM) | − (“−” indicates less than 50% inhibition at 10 μM) | − (“−” indicates less than 50% inhibition at 10 μM) | − (“−” indicates less than 50% inhibition at 10 μM) | − (“−” indicates less than 50% inhibition at 10 μM) | − (“−” indicates less than 50% inhibition at 10 μM) | − (“−” indicates less than 50% inhibition at 10 μM) | − (“−” indicates less than 50% inhibition at 10 μM) | + (“+” indicates greater than 50% inhibition at 10 μM) | − (“−” indicates less than 50% inhibition at 10 μM) | – |
| NCCCC(=O)NC1C(OCc2ccc3ccccc3c2)OC(COCc2ccc3ccccc3c2)C(O)C1OCc1ccc(Cl)cc1 (single isomer, unassigned) [compound 454] | – | – | – | – | – | – | – | – | – | – | – | A7: inhibition of radioligand binding (Human μ-opioid (MOP); human MOP membranes, 10 µM): + (“+” indicates greater than 50% inhibition at 10 μM); A5: inhibition of radioligand binding (Human melanocortin (MC5); human MC5 membranes): + (“+” indicates greater than 50% inhibition at 10 μM); A4: inhibition of radioligand binding (Human Melanocortin (MC4); human MC4 membranes): + (“+” indicates greater than 50% inhibition at 10 μM); A3: inhibition of radioligand binding (Human Melanocortin (MC3); human MC3 membranes): + (“+” indicates greater than 50% inhibition at 10 μM); A6: inhibition of radioligand binding ([1]; [125I]-S36057, human MCH1 membranes): + (“+” indicates greater than 50% inhibition at 10 μM); A1: inhibition of radioligand binding (Human δ-opioid (DOP); human DOP membranes): − (“−” indicates less than 50% inhibition at 10 μM); A9: inhibition of radioligand binding ([2]; human NPY-Y1 membranes): − (“−” indicates less than 50% inhibition at 10 μM); A10: inhibition of radioligand binding (Human opioid (ORL1); human ORL1 membranes, 10 µM): + (“+” indicates greater than 50% inhibition at 10 μM); A11: inhibition of radioligand binding (Mouse urotensin (mUR2); mouse mUR2 membranes): − (“−” indicates less than 50% inhibition at 10 μM); A8: inhibition of radioligand binding (Human neurokinin (NK1); human NK1 membranes): + (“+” indicates greater than 50% inhibition at 10 μM); A2: inhibition of radioligand binding (Human κ-Opioid (KOP); human KOP membranes, 10 µM): − (“−” indicates less than 50% inhibition at 10 μM) |
| CSC1OC(COCc2ccc(-c3ccccc3)cc2)C(O)C(OCc2ccc3ccccc3c2)C1NC(=O)CCN (stereo not shown) [compound 313] | − (“−” indicates less than 50% inhibition at 10 μM) | + (“+” indicates greater than 50% inhibition at 10 μM) | − (“−” indicates less than 50% inhibition at 10 μM) | − (“−” indicates less than 50% inhibition at 10 μM) | − (“−” indicates less than 50% inhibition at 10 μM) | − (“−” indicates less than 50% inhibition at 10 μM) | − (“−” indicates less than 50% inhibition at 10 μM) | − (“−” indicates less than 50% inhibition at 10 μM) | − (“−” indicates less than 50% inhibition at 10 μM) | + (“+” indicates greater than 50% inhibition at 10 μM) | − (“−” indicates less than 50% inhibition at 10 μM) | – |
| CSC1OC(COCc2ccc(-c3ccccc3)cc2)C(O)C(OCc2ccccc2)C1NC(=O)CCCNC(=N)N (stereo not shown) [compound 259] | – | – | – | – | – | – | – | – | – | – | – | A7: inhibition of radioligand binding (Human μ-opioid (MOP); FlashPlate): − (“−” indicates less than 50% inhibition at 10 μM); A5: inhibition of radioligand binding (Human melanocortin (MC5); FlashPlate): − (“−” indicates less than 50% inhibition at 10 μM); A4: inhibition of radioligand binding (Human Melanocortin (MC4); FlashPlate): + (“+” indicates greater than 50% inhibition at 10 μM); A3: inhibition of radioligand binding (Human Melanocortin (MC3); FlashPlate): − (“−” indicates less than 50% inhibition at 10 μM); A6: inhibition of radioligand binding ([1]; [125I]-S36057, FlashPlate): − (“−” indicates less than 50% inhibition at 10 μM); A1: inhibition of radioligand binding (Human δ-opioid (DOP); FlashPlate): − (“−” indicates less than 50% inhibition at 10 μM); A9: inhibition of radioligand binding ([2]; FlashPlate): − (“−” indicates less than 50% inhibition at 10 μM); A10: inhibition of radioligand binding (Human opioid (ORL1); FlashPlate): − (“−” indicates less than 50% inhibition at 10 μM); A11: inhibition of radioligand binding (Mouse urotensin (mUR2); FlashPlate): − (“−” indicates less than 50% inhibition at 10 μM); A8: inhibition of radioligand binding (Human neurokinin (NK1); filtration): + (“+” indicates greater than 50% inhibition at 10 μM); A2: inhibition of radioligand binding (Human κ-Opioid (KOP); filtration): − (“−” indicates less than 50% inhibition at 10 μM) |
